Experiments:
Format in all cases: in vivo
[1] = system: barnyard grass (Echinochloa crus-galli); test: Test Example 1: foliar application pot test, visual growth control rating; design: key: 1: the same as in an untreated plot; 10: perfect growth control; conditions: wettable powder, observed 20 to 31 days after application
Source text: (§1) 1/1,500 are [are (a) = 100 m²] pots were filled with upland farming soil, which in the pots was then sown with a variety of plants. The plants grown will be enumerated below.
(§2) When each plant reached a given growth stage (a 1.2- to 3.0-leaf stage for rice, primary leaf to a 0.7-leaf stage for soybean, 2.1- to 3.6-leaf stage for corn, cotyledon to 0.7-leaf stage for cotton, 2.0- to 3.0-leaf stage for wheat, 0.3- to 3.4-leaf stage for cocklebur, 0.3- to 1.6-leaf stage for morning glory, 0.1- to 1.3-leaf stage for prickly sida, 0.1- to 1.3-leaf stage for slender amaranth, 1.5- to 3.2-leaf stage for barnyard glass, and 1.2- to 3.0-leaf stage for large crabgrass), a predetermined amount of the herbicide of the present invention in the form of a wettable powder, weighed out, diluted with 5 ℓ/a of water and admixed with 0.2 or 0.1 vol%, based on the resulting composition, of an agricultural spreader, was foliarly applied to the plant with a small spray gun. The progress of growth of the plant was visually observed 20 to 31 days after the foliar application to evaluate the degree of growth control according to 10 ratings (1: the same as in an untreated plot - 10: perfect growth control).

[2] = system: corn (Zea mays); test: as above; design: key: 1: the same as in an untreated plot; 10: perfect growth control; conditions: wettable powder, observed 20 to 31 days after application
Source text: as §1, §2

[3] = system: large crabgrass (Digitaria adscendens); test: as above; design: key: 1: the same as in an untreated plot; 10: perfect growth control; conditions: wettable powder, observed 20 to 31 days after application
Source text: as §1, §2

[4] = system: morning glory (Ipomoea purpurea); test: as above; design: key: 1: the same as in an untreated plot; 10: perfect growth control; conditions: wettable powder, observed 20 to 31 days after application
Source text: as §1, §2

[5] = system: rice (Oryza sativa); test: as above; design: key: 1: the same as in an untreated plot; 10: perfect growth control; conditions: wettable powder, observed 20 to 31 days after application
Source text: as §1, §2

[6] = system: slender amaranth (Amaranthus viridis); test: as above; design: key: 1: the same as in an untreated plot; 10: perfect growth control; conditions: wettable powder, observed 20 to 31 days after application
Source text: as §1, §2

[7] = system: velvet leaf (Abutilon theophrasti); test: Test Example 2: foliar application pot test, visual herbicidal effect rating, single and combined herbicides; conditions: velvet leaf 1.2-leaf stage, 25 days after foliar application; note: ranges in brackets are in %
Source text: 1/10000-are pot was filled with upland farming soil and sown with velvet leaf (Abutilon theophrasti). When the plant reached the 1.2-leaf stage, a predetermined amount of the herbicide of the present invention diluted with 5 ℓ of water per are and admixed with 0.1 vol%, based on the aqueous solution, of an agricultural spreader ("Kusa Rino", produced by Nihon Nohyaku Co., Ltd.) was foliarly applied to the plant with a small spray gun. The herbicidal effect was visually observed 25 days after the foliar application and evaluated according to the rating system shown below.

[8] = system: velvet leaf; test: Test Example 3: foliar application pot test, percent growth inhibition by fresh weight of aerial part and Colby's value; conditions: Abutilon theophrasti, velvet leaf 1-leaf stage, 20th day from foliar application, fresh weight of aerial part, read-out: Percent Growth Inhibition (%) Found
Source text: (§3) 1/10000-are pot was filled with upland farming soil and sown with velvet leaf. When the plant reached the 1-leaf stage, a predetermined amount of the herbicide of the present invention diluted with 5 ℓ of water per are and admixed with 0.1 vol%, based on the aqueous solution, of an agricultural spreader ("Kusa Rino") was foliarly applied to the plant with a small spray gun. On the 20th day from the application, the aerial part of the plant was weighed to obtain a percent growth inhibition according to Equation (1) (found value) and a Colby's value (calculated value) according to Equation (2) (see Weed, Vol. 15, pp. 20-22 (1967)). Percent Growth Inhibition (%) = (1 -(Fresh Weight of Aerial Part of Plant in Treated Plot)/(Fresh Weight of Aerial Part of Plant in Untreated Plot)) x 100 [formula] Colby's Value (E) = α + β -(α x β)/(100) [formula]
(§4) Wherein α represents a percent growth inhibition when treated with an amount a (g/a) of herbicide A; β represents a percent growth inhibition when treated with amount b (g/a) of herbicide B; and E represents an expected percent growth inhibition when treated with a of herbicide A and b of herbicide B.

[9] = system: velvet leaf; test: Test Example 4: foliar application pot test, percent growth inhibition by fresh weight of aerial part and Colby's value; conditions: Abutilon theophrasti, velvet leaf 1-leaf stage, 20th day from foliar application, fresh weight of aerial part, read-out: Percent Growth Inhibition (%) Found
Source text: as §3, §4
(§5) 1/10000-are pot was filled with upland farming soil and sown with velvet leaf. When the plant reached the 1-leaf stage, a predetermined amount of the herbicide of the present invention diluted with 5 ℓ of water per are and admixed with 0.1 vol%, based on the aqueous solution, of an agricultural spreader ("Kusa Rino") was foliarly applied to the plant with a small spray gun. On the 20th day from the application, the aerial part of the plant was weighed to obtain a percent growth inhibition and a Colby's value in the same manner as in Test Example 3.

[10] = system: large crabgrass (Digitaria adscendens); test: Test Example 5: foliar application pot test, percent growth inhibition by fresh weight of aerial part and Colby's value; conditions: foliar application, 20th day, large crabgrass, read-out: Percent Growth Inhibition (%) Found
Source text: as §3, §4
as §5, with “large crabgrass (Digitaria adscendens).” for “velvet leaf.”, “2-leaf” for “1-leaf”

[11] = system: cotton (Gossypium); test: Test Example 1: foliar application pot test, visual growth control rating; conditions: wettable powder, observed 20 to 31 days after application
Source text: as §1, §2

[12] = system: cocklebur (Xanthium strumarium); test: as above; design: key: 1: the same as in an untreated plot; 10: perfect growth control; conditions: wettable powder, observed 20 to 31 days after application
Source text: as §1, §2

[13] = system: prickly sida (Sida spinosa); test: as above; design: key: 1: the same as in an untreated plot; 10: perfect growth control; conditions: 1.25 g/a active ingredient, wettable powder, observed 20 to 31 days after application
Source text: as §1, §2

[14] = system: soybean (Glycine max); test: as above; design: key: 1: the same as in an untreated plot; 10: perfect growth control; conditions: 1.25 g/a active ingredient, wettable powder, observed 20 to 31 days after application
Source text: as §1, §2

Row | Structure (SMILES) | degree of growth control, EC ([1]; 0.31 g/a active ingredient) | degree of growth control, EC ([1]; 1.25 g/a active ingredient) | degree of growth control, ZE ([2]; 0.31 g/a active ingredient) | degree of growth control, ZE ([2]; 1.25 g/a active ingredient) | degree of growth control, DI ([3]; 1.25 g/a active ingredient) | degree of growth control, IP ([4]; 0.31 g/a active ingredient) | degree of growth control, IP ([4]; 1.25 g/a active ingredient) | degree of growth control, OR ([5]; 1.25 g/a active ingredient) | degree of growth control, AM ([6]; 1.25 g/a active ingredient) | degree of growth control, GO ([11]; 1.25 g/a active ingredient) | degree of growth control, XA ([12]; 1.25 g/a active ingredient) | further results
1 | CCN(c1cccc(S(=O)(=O)NC(=O)Nc2nc(C)nc(OC)n2)n1)S(=O)(=O)C(C)Cl (racemic) [Compound No. 54, 6-[[N-(1-chloroethylsulfonyl)-N-ethyl]amino]-N-[[(4-methoxy-6-methyltriazin-2-yl)amino]carbonyl]-2-pyridinesulfonamide] | 10 | 10 | 10 | 10 | 3 | 9 | 9 | 9 | 9 | – | – | degree of growth control, DI ([3]; 0.31 g/a active ingredient): 3; degree of growth control, OR ([5]; 0.31 g/a active ingredient): 9; degree of growth control, AM ([6]; 0.31 g/a active ingredient): 9; Rating ([7]; 0.16 g/a): 3 (30-39); Rating ([7]; 0.31 g/a): 5 (50-59); Rating ([7]; 0.63 g/a): 6 (60-69); Rating ([7]; 1.25 g/a): 8 (80-89); inhibition at 16 g/ha ([8]; 0.16 g/a): 19%; inhibition at 31 g/ha ([8]; 0.31 g/a): 52%; inhibition at 63 g/ha ([8]; 0.63 g/a): 86%; inhibition at 16 g/ha ([9]; 0.16 g/a): 12%; inhibition at 31 g/ha ([9]; 0.31 g/a): 32%; inhibition at 63 g/ha ([9]; 0.63 g/a): 66%; inhibition at 16 g/ha ([10]; 0.16 g/a): 19%; inhibition at 31 g/ha ([10]; 0.31 g/a): 24%; inhibition at 63 g/ha ([10]; 0.63 g/a): 77%
2 | CCC(Cl)S(=O)(=O)N(CC)c1cccc(S(=O)(=O)NC(=O)Nc2nc(C)nc(OC)n2)n1 (racemic) [compound 88] | 10 | 10 | 10 | 10 | – | 10 | 10 | – | – | 6 | 10 | degree of growth control, GO ([11]; 0.31 g/a active ingredient): 6; degree of growth control, XA ([12]; 0.31 g/a active ingredient): 10
3 | CCN(c1cccc(S(=O)(=O)NC(=O)Nc2nc(C)nc(OC)n2)n1)S(=O)(=O)CC(F)(F)F [compound 79] | – | 1 | – | 1 | 3 | – | 7 | 1 | 6 | 6 | 6 | degree of growth control, SI [13]: 3; degree of growth control, GL [14]: 6

From patent publication EP0562731A1, “Substituted pyridinesulfonamide compounds or their salts, process for preparing the same, and herbicides containing the same” (ISHIHARA SANGYO KAISHA, Ltd., priority 1992, dated 1993)
